In the supplement of paper PMC10307832:

Experiments:
Test in all cases: relative viability (nuclei count vs DMSO), 5 days (fraction); higher = more cells survive
[1] = compound: CC[C@H](Nc1ncnc2[nH]cnc12)c1nc2cccc(F)c2c(=O)n1-c1ccccc1 [Idelalisib] + COc1cc2c(Oc3ccc(NC(=O)C4(C(=O)Nc5ccc(F)cc5)CC4)cc3F)ccnc2cc1OCCCN1CCOCC1 [Foretinib] (partner 0.25 µM)
Procedure, shortened: (§1)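 Lung cancer cell lines, seeded in 1536-well plates, were treated the following day by pin tool with a single drug or with five library-drug doses (not always all listed) in √10 steps on top of a fixed anchor-drug dose. Cells were fixed and nuclei stained in one step after 5 days, and nuclei were counted. Relative viability is the nuclei count for treated wells divided by that for vehicle wells, reported as medians of duplicate plates.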

[2] = compound: CC[C@H](Nc1ncnc2[nH]cnc12)c1nc2cccc(F)c2c(=O)n1-c1ccccc1 [Idelalisib] + Cc1nc(NC(=O)N2CCC[C@H]2C(N)=O)sc1-c1ccnc(C(C)(C)C(F)(F)F)c1 [Alpelisib] (partner 2 µM)
Procedure, shortened: as §1

[3] = compound: Nc1nc2[nH]cc(CCc3ccc(C(=O)N[C@@H](CCC(=O)O)C(=O)O)cc3)c2c(=O)[nH]1 [Pemetrexed] + CC(=O)c1c(C)c2cnc(Nc3ccc(N4CCNCC4)cn3)nc2n(C2CCCC2)c1=O [Palbociclib] (partner 0.5 µM)
Procedure, shortened: as §1

[4] = compound: Nc1nc2[nH]cc(CCc3ccc(C(=O)N[C@@H](CCC(=O)O)C(=O)O)cc3)c2c(=O)[nH]1 [Pemetrexed] + N=C(N)NC(=N)NCCc1ccccc1 [Phenformin] (partner 250 µM)
Procedure, shortened: as §1

## UMC-11
[1]; first compound 0.04 µM
  relative viability: 0.957
[1]; first compound 0.1265 µM
  relative viability: 1.07
[1]; first compound 0.4 µM
  relative viability: 0.988
[1]; first compound 1.265 µM
  relative viability: 1.03
[1]; first compound 4 µM
  relative viability: 1.09
[2]; first compound 0.04 µM
  relative viability: 1.15
[2]; first compound 0.1265 µM
  relative viability: 0.999
[2]; first compound 0.4 µM
  relative viability: 0.966
[2]; first compound 1.265 µM
  relative viability: 0.987
[2]; first compound 4 µM
  relative viability: 1.05
[3]; first compound 0.002 µM
  relative viability: 0.344
[3]; first compound 0.006325 µM
  relative viability: 0.322
[3]; first compound 0.02 µM
  relative viability: 0.343
[3]; first compound 0.06325 µM
  relative viability: 0.342
[3]; first compound 0.2 µM
  relative viability: 0.357
[4]; first compound 0.002 µM
  relative viability: 0.325
[4]; first compound 0.006325 µM
  relative viability: 0.311
[4]; first compound 0.02 µM
  relative viability: 0.312
[4]; first compound 0.06325 µM
  relative viability: 0.334
[4]; first compound 0.2 µM
  relative viability: 0.347
